In patent publication US20240025862A1, “SUBSTITUTED N-PHENYLURACILS AND SALTS THEREOF, AND USE THEREOF AS HERBICIDAL ACTIVE SUBSTANCES” (Bayer Aktiengesellschaft, priority 2020, published 2024):

Assays:
Format in all cases: in vivo
[1] = tested on: Pharbitis purpurea (PHBPU); test: Post-emergence herbicidal action, greenhouse pot test
How it was run: (§1)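 Activity was scored by eye about 3 weeks after treatment against untreated plants, where 100% means dead plants and 0% means no difference. Plants at the one-leaf stage received a foliar spray of WP or EC formulations in water plus 0.5% additive (600 l/ha, up to 20 g/ha). Plants were grown in sandy loam pots in a greenhouse for 2–3 weeks before spraying.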

[2] = tested on: Viola tricolor (VIOTR); test: as above
How it was run: as §1

[3] = tested on: Veronica persica (VERPE); test: as above
How it was run: as §1

[4] = tested on: Abutilon theophrasti (ABUTH); test: as above; conditions: rated visually after about 3 weeks vs untreated controls, 100% = plants have died
How it was run: as §1

[5] = tested on: Polygonum convolvulus (POLCO); test: as above
How it was run: as §1

[6] = tested on: Lolium rigidum (LOLRI); test: as above; conditions: dosage 20 g/ha
How it was run: as §1

[7] = tested on: Amaranthus retroflexus (AMARE); test: as above; conditions: rated visually after about 3 weeks vs untreated controls, 100% = plants have died
How it was run: as §1

[8] = tested on: Avena fatua (AVEFA); test: as above; conditions: rated visually after about 3 weeks vs untreated controls, 100% = plants have died
How it was run: as §1

[9] = tested on: Oryza sativa (ORYSA); test: Post-emergence crop plant compatibility, greenhouse pot test (also comparative test C); conditions: vs untreated controls
How it was run: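 Visual damage versus untreated plants (0% = like control, 100% = plants died) was scored about 3 weeks after a post-emergence spray in greenhouse pots. Treatment: one-leaf stage, WP or EC in water at 600 l/ha with 0.5% additive; a/b/c mark different dosages on the same crop.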

[10] = tested on: Triticum aestivum (TRZAS); test: Post-emergence crop plant compatibility, greenhouse pot test; conditions: vs untreated controls
How it was run: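 Values are visual % damage versus untreated controls (100% = plants died) about 3 weeks after treatment. Plants in sandy loam were sprayed at the one-leaf stage, 2–3 weeks after sowing, with aqueous WP/EC preparations plus 0.5% additive at 600 l/ha; a/b/c mark different dose levels.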

[11] = tested on: Matricaria inodora (MATIN); test: Post-emergence herbicidal action, greenhouse pot test (also comparative test C)
How it was run: (§2)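 Green parts of one-leaf-stage plants are sprayed at 600 l/ha with formulated compound plus 0.5% additive, then kept under optimum greenhouse conditions for about 3 weeks. Damage is scored visually, where 100% means dead plants and 0% means no difference from controls.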

[12] = tested on: Alopecurus myosuroides (ALOMY); test: as above; conditions: rated visually after about 3 weeks vs untreated controls, 100% = plants have died
How it was run: as §2

[13] = tested on: Setaria viridis (SETVI); test: as above
How it was run: as §2

[14] = tested on: Echinochloa crus-galli (ECHCG); test: as above
How it was run: as §2

Post-emergence action against ORYSA (crop plant compatibility) ([9]; 1.25 g/ha): 0% | Post-emergence action against ORYSA (crop plant compatibility) ([9]; 5 g/ha): 20% | Post-emergence action against TRZAS (crop plant compatibility) ([10]; 1.25 g/ha): 0% | Post-emergence action against TRZAS (crop plant compatibility) ([10]; 5 g/ha): 20%
Structure (SMILES): Cn1c(C(F)(F)F)cc(=O)n(-c2cc(Oc3ccccc3OCC(=O)OCCOC(F)(F)F)c(Cl)cc2F)c1=O [I.7-41]
Post-emergence action against PHBPU in % ([1]; dosage 1.25 g/ha): 100% | Post-emergence action against PHBPU in % ([1]; dosage 5 g/ha): 100% | Post-emergence action against PHBPU in % ([1]; dosage 20 g/ha): 100% | Post-emergence action against VIOTR ([2]; 1.25 g/ha): 100% | Post-emergence action against VIOTR ([2]; 5 g/ha): 100% | Post-emergence action against VIOTR ([2]; 20 g/ha): 100% | Post-emergence action against VERPE ([3]; 1.25 g/ha): 80% | Post-emergence action against VERPE ([3]; 5 g/ha): 100% | Post-emergence action against VERPE ([3]; 20 g/ha): 100% | Post-emergence action at 1.25 g/ha against ABUTH in % ([4]; 1.25 g/ha): 100% | Post-emergence action at 5 g/ha against ABUTH in % ([4]; 5 g/ha): 100% | Post-emergence action at 20 g/ha against ABUTH in % ([4]; 20 g/ha): 100% | Post-emergence action against POLCO in % ([5]; dosage 5 g/ha): 100% | Post-emergence action against POLCO in % ([5]; dosage 20 g/ha): 100% | Post-emergence action against LOLRI in % [6]: 80% | Post-emergence action at 1.25 g/ha against AMARE in % ([7]; 1.25 g/ha): 100% | Post-emergence action at 5 g/ha against AMARE in % ([7]; 5 g/ha): 100% | Post-emergence action at 20 g/ha against AMARE in % ([7]; 20 g/ha): 100% | Post-emergence action at 5 g/ha against AVEFA in % ([8]; 5 g/ha): 80% | Post-emergence action at 20 g/ha against AVEFA in % ([8]; 20 g/ha): 80% | Post-emergence action against MATIN in % ([11]; dosage 1.25 g/ha): 90% | Post-emergence action against MATIN in % ([11]; dosage 5 g/ha): 90% | Post-emergence action against MATIN in % ([11]; dosage 20 g/ha): 100% | Post-emergence action at 1.25 g/ha against ALOMY in % ([12]; 1.25 g/ha): 100% | Post-emergence action at 5 g/ha against ALOMY in % ([12]; 5 g/ha): 100% | Post-emergence action at 20 g/ha against ALOMY in % ([12]; 20 g/ha): 100% | Post-emergence action against SETVI ([13]; 20 g/ha): 100% | Post-emergence action against SETVI in % ([13]; dosage 1.25 g/ha): 100% | Post-emergence action against SETVI in % ([13]; dosage 5 g/ha): 100% | Post-emergence action at 1.25 g/ha against ECHCG in % ([14]; 1.25 g/ha, rated visually after about 3 weeks vs untreated controls, 100% = plants have died): 90% | Post-emergence action against ECHCG in % ([14]; dosage 5 g/ha): 100% | Post-emergence action against ECHCG in % ([14]; dosage 20 g/ha): 100%
